# From patent publication US20240116985A1, “STAPLED PEPTIDES AND METHODS THEREOF” (priority 2020, published 2024)
# Where two headings read alike, the source gives them in different places.
# How the values were obtained:
# [1] = target: T1, full-length beta-Catenin (Uniprot ID P35222) (Homo sapiens, UniProt P35222); assay: Fluorescence polarization IC50 (beta-catenin / 5FAM-TCF4 10-53 competition); type: binding
# T1 construct: 10 nM full-length beta-Catenin (Uniprot ID P35222)
# T1 sequence (P35222 1-781): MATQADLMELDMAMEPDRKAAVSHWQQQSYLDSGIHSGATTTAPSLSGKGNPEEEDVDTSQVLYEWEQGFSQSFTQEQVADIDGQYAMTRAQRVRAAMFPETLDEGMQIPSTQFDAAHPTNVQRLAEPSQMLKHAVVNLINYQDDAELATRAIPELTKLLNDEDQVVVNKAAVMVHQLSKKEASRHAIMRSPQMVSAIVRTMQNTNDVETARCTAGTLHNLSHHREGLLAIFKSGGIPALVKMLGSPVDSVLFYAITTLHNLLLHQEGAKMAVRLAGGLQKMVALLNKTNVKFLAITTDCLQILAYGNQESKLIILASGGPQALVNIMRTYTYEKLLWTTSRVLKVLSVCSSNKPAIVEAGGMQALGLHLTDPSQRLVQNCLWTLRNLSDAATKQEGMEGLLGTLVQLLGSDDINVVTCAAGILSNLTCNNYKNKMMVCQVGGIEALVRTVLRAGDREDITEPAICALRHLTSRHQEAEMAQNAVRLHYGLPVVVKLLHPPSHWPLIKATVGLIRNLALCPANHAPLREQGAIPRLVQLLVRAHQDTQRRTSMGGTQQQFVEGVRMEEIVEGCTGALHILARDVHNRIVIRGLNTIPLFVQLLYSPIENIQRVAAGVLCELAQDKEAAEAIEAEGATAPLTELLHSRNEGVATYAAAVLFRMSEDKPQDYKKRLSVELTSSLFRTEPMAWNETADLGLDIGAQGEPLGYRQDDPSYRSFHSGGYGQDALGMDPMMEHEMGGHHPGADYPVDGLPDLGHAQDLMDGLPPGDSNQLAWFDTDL
# CHI Log D procedure = type: physicochemical; conditions: for chromatographic logD: pH 7.4, CHI Log D; for CHI Log D: pH 7.4
# Solubility in PBS = type: physicochemical
# Summary of the method: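 The PBS solution was ultracentrifuged and the supernatant analyzed by HPLC. Its peak area was divided by that of a 50 μM peptide DMSO reference injection and multiplied by 50 uM to give solubility.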
# [2] = fluorescence polarization, read-out: beta-Catenin FP IC50
# [3] = Table E2-1, read-out: beta-Catenin FP IC50
# [4] = fluorescence polarization, beta-catenin, read-out: FP EC50
Compound,"IC50 [1, 2] [nM]",chromatographic logD (CHI Log D procedure),Solubility (Solubility in PBS; Solubility (uM)) [µM],"IC50 [1, 3] [nM]","IC50 [1, 4] [nM]",CHI Log D (CHI Log D procedure),Solubility (Solubility in PBS) [µM],IC50 ([1]; read-out: beta-Catenin FP IC50) [nM],IC50 ([1]; read-out: FP EC50) [nM]
"CC[C@@H](C)[C@@H](NC(=O)[C@H](Cc1c[nH]cn1)NC(=O)[C@H](Cc1csc2ccccc12)NC(=O)[C@H](Cc1ccccc1)NC(=O)[C@]1(C)CCCCCCC=CCCCC2(CCCC=CC[C@]3(CCCN3C(C)=O)C(=O)N[C@@H](CC(=O)O)C(=O)N[C@@H](CC(C)C)C(=O)N2)C(=O)N[C@@H](CC(=O)O)C(=O)N[C@@H](CCC(=O)O)C(=O)N[C@@H](C)C(=O)N[C@@H](C)C(=O)N[C@@H](Cc2ccccc2)C(=O)N[C@@H](CC(N)=O)C(=O)N1)C(N)=O (stereo partly drawn) [I-742, Ac-PL3-Asp-Leu-B5-Asp-Glu-Ala-Ala-Phe-Asn-S8-Phe-BztA-His-dIle-NH2]",159,2.8,27,,,,,,
"CC(=O)N1CCC[C@]12CC=CCCCC1(CCCC=CCCCCCC[C@@](C)(C(=O)N[C@@H](Cc3ccccc3)C(=O)N[C@@H](Cc3c[nH]c4ccccc34)C(=O)N[C@@H](CCC(N)=O)C(N)=O)NC(=O)[C@H](C(C)C)NC(=O)[C@H](Cc3ccccc3)NC(=O)[C@H](C)NC(=O)[C@H](C)NC(=O)[C@H](Cc3c[nH]cn3)NC(=O)[C@H](CC(=O)O)NC1=O)NC(=O)[C@H](C)NC(=O)[C@H](CC(=O)O)NC2=O (stereo partly drawn) [I-305, Ac-PL3-Asp-Ala-B5-Asp-His-Ala-Ala-Phe-Val-S8-Phe-Trp-Gln-NH2]",,,,3980,3980,2.348,10,,
"CC(=O)N1CCC[C@]12CC=CCCCC1(CCCC=CCCCOC(=O)N3CC[C@@](C(=O)N[C@@H](Cc4ccsc4)C(=O)N[C@@H](Cc4csc5ccccc45)C(N)=O)(C3)NC(=O)[C@H](CC(N)=O)NC(=O)[C@H](Cc3ccccc3)NC(=O)[C@H](C)NC(=O)[C@H](C)NC(=O)[C@H]([C@@H](C)O)NC(=O)[C@H](CC(=O)O)NC1=O)NC(=O)[C@H](CC(C)(C)C)NC(=O)[C@H](CC(=O)O)NC2=O (stereo partly drawn) [I-860, Ac-PL3-Asp-Npg-B5-Asp-Thr-Ala-Ala-Phe-Asn-PyrS2-3Thi-BztA-NH2]",,,,,61,2.722,10,61,
"CC(=O)N1CCC[C@]12CC=CCCCC1(CCCC=CCCCCCC[C@@](C)(C(=O)N[C@@H](Cc3ccccc3)C(=O)N[C@@H](Cc3csc4ccccc34)C(=O)N[C@@H](Cc3c[nH]cn3)C(=O)N[C@H](C)C(N)=O)NC(=O)[C@H](CC(N)=O)NC(=O)[C@H](Cc3ccccc3)NC(=O)[C@H](C)NC(=O)[C@H](C)NC(=O)[C@H](CCC(=O)O)NC(=O)[C@H](CC(=O)O)NC1=O)NC(=O)[C@H](CC(C)C)NC(=O)[C@H](CC(=O)O)NC2=O (stereo partly drawn) [I-739, Ac-PL3-Asp-Leu-B5-Asp-Glu-Ala-Ala-Phe-Asn-S8-Phe-BztA-His-dAla-NH2]",53,2.41,,,,,10,,
"CC(=O)N1CCC[C@]12CC=CCCCC1(CCCC=CCCCOC(=O)N3CC[C@@](C(=O)N[C@@H](Cc4ccccc4Cl)C(=O)N[C@@H](Cc4csc5ccccc45)C(=O)N[C@@H](CO)C(N)=O)(C3)NC(=O)[C@H](CC(C)C)NC(=O)[C@H](Cc3ccccc3)NC(=O)[C@H](C)NC(=O)[C@H](C)NC(=O)[C@H](CC(=O)O)NC(=O)[C@H](CC(=O)O)NC1=O)NC(=O)[C@H](Cc1ccc3ccccc3c1)NC(=O)[C@H](CC(=O)O)NC2=O (stereo partly drawn) [I-1117, Ac-PL3-Asp-2NapA-B5-Asp-Asp-Ala-Ala-Phe-Leu-PyrS2-2C1F-BztA-Ser-NH2]",,2.61,,,,,10,55,
"CC(=O)N1CCC[C@]12CC=CCCCC1(CCCC=CCCCOC(=O)N3CC[C@@](C(=O)N[C@@H](Cc4ccccc4Cl)C(=O)N[C@@H](Cc4csc5ccccc45)C(=O)N[C@@H](CCO)C(N)=O)(C3)NC(=O)[C@H](Cc3ccccc3)NC(=O)[C@H](Cc3ccccc3)NC(=O)[C@H](C)NC(=O)[C@H](C)NC(=O)[C@H](CN(CC(=O)O)CC(F)(F)F)NC(=O)[C@H](CC(=O)O)NC1=O)NC(=O)[C@H](CC(C)(C)C)NC(=O)[C@H](CC(=O)O)NC2=O (stereo partly drawn) [I-992, Ac-PL3-Asp-Npg-B5-Asp-TfeGA-Ala-Ala-Phe-Phe-PyrS2-2C1F-BztA-Hse-NH2]",,2.56,12,,,,,59,
"CC(=O)N1CCC[C@]12CC=CCCCC1(CCCC=CCCCCOC(=O)N3CC[C@@](C(=O)N[C@@H](Cc4ccsc4)C(=O)N[C@@H](Cc4csc5ccccc45)C(=O)N[C@@H](Cc4c[nH]cn4)C(=O)N[C@@H](C)C(N)=O)(C3)NC(=O)[C@H](CC(N)=O)NC(=O)[C@H](Cc3ccccc3)NC(=O)[C@H](C)NC(=O)[C@H](C)NC(=O)[C@H](CC(=O)O)NC(=O)[C@H](CC(=O)O)NC1=O)NC(=O)[C@H](CC(C)(C)C)NC(=O)[C@H](CC(=O)O)NC2=O (stereo partly drawn) [I-828, Ac-PL3-Asp-Npg-B5-Asp-Asp-Ala-Ala-Phe-Asn-PyrS3-3Thi-BztA-His-Ala-NH2]",,,,,13,2.137,40,13,
"CC(=O)N1CCC[C@]12CC=CCCCC1(CCCC=CCCCOC(=O)N3CC[C@@](C(=O)N[C@@H](Cc4ccsc4)C(=O)N[C@@H](Cc4csc5ccccc45)C(=O)N[C@@H](CCC(N)=O)C(N)=O)(C3)NC(=O)[C@H](CC(N)=O)NC(=O)[C@H](Cc3ccccc3)NC(=O)[C@H](C)NC(=O)[C@H](C)NC(=O)[C@H](Cc3cccc(C(=O)O)c3)NC(=O)[C@H](CC(=O)O)NC1=O)NC(=O)[C@H](CC(C)(C)C)NC(=O)[C@H](CC(=O)O)NC2=O (stereo partly drawn) [I-977, Ac-PL3-Asp-Npg-B5-Asp-3COOHF-Ala-Ala-Phe-Asn-PyrS2-3Thi-BztA-Gln-NH2]",,,,,367,1.87,46,875,
"CC(=O)N1CCC[C@]12CC=CCCCC1(CCCC=CCCCCCC[C@@](C)(C(=O)N[C@@H](Cc3ccccc3)C(=O)N[C@@H](Cc3csc4ccccc34)C(N)=O)NC(=O)[C@H](CC(N)=O)NC(=O)[C@H](Cc3ccccc3)NC(=O)[C@H](C)NC(=O)[C@H](C)NC(=O)[C@H](CCC(=O)O)NC(=O)[C@H](CC(=O)O)NC1=O)NC(=O)[C@H](CC(C)(C)C)NC(=O)[C@H](CC(=O)O)NC2=O (stereo partly drawn) [I-712, Ac-PL3-Asp-Npg-B5-Asp-Glu-Ala-Ala-Phe-Asn-S8-Phe-BztA-NH2]",92,,,,,2.778,42,,92

# The next lines start with the values.
"IC50 [1, 2] [nM]",chromatographic logD (CHI Log D procedure),Solubility (Solubility in PBS; Solubility (uM)) [µM],"IC50 [1, 3] [nM]","IC50 [1, 4] [nM]",CHI Log D (CHI Log D procedure),Solubility (Solubility in PBS) [µM],IC50 ([1]; read-out: beta-Catenin FP IC50) [nM],IC50 ([1]; read-out: FP EC50) [nM],Compound
,,,,1340,2.143,50,,,"CC(=O)N1CCC[C@]12CC=CCCCC1(CCCC=CCCCCCC[C@@](C)(C(=O)N[C@@H](Cc3ccccc3)C(=O)N[C@@H](Cc3csc4ccccc34)C(=O)N[C@@H](CCC(N)=O)C(N)=O)NC(=O)[C@H](CCC(N)=O)NC(=O)[C@H](Cc3cccc(C(F)(F)F)c3)NC(=O)[C@H](C)NC(=O)[C@H](C)NC(=O)[C@H](CC(=O)O)NC(=O)[C@H](CC(=O)O)NC1=O)NC(=O)[C@H](C)NC(=O)[C@H](CC(=O)O)NC2=O (stereo partly drawn) [I-379, Ac-PL3-Asp-Ala-B5-Asp-Asp-Ala-Ala-3F3MeF-Gln-S8-Phe-BztA-Gln-NH2]"
57,2.34,36,,,,,,,"CC[C@H](C)[C@@H]1NC(=O)[C@H](CC(=O)O)NC(=O)[C@]2(CC=CCCCC3(CCCC=CCCCCCC[C@@](C)(C(=O)N[C@@H](Cc4ccccc4)C(=O)N[C@@H](Cc4csc5ccccc45)C(=O)N[C@@H](Cc4c[nH]cn4)C(N)=O)NC(=O)[C@H](CCC(N)=O)NC(=O)[C@H](Cc4cccs4)NC(=O)[C@H](C)NC(=O)[C@H](C)NC(=O)[C@H](CC(=O)O)NC(=O)[C@H](CC(=O)O)NC3=O)NC1=O)CCCN2C(C)=O (stereo partly drawn) [I-489, Ac-PL3-Asp-Ile-B5-Asp-Asp-Ala-Ala-2Thi-Gln-S8-Phe-BztA-His-NH2]"
,,,121,121,1.956,50,,,"CC(=O)N1CCC[C@]12CC=CCCCC1(CCCC=CCCCCCC[C@@](C)(C(=O)N[C@@H](Cc3ccccc3)C(=O)N[C@@H](Cc3csc4ccccc34)C(=O)N[C@@H](CCC(N)=O)C(N)=O)NC(=O)[C@H](C(C)C)NC(=O)[C@H](Cc3ccccc3)NC(=O)[C@H](C)NC(=O)[C@H](C)NC(=O)[C@H](CC(=O)O)NC(=O)[C@H](CC(=O)O)NC1=O)NC(=O)[C@H](CCC(N)=O)NC(=O)[C@H](CC(=O)O)NC2=O (stereo partly drawn) [I-347, Ac-PL3-Asp-Gln-B5-Asp-Asp-Ala-Ala-Phe-Val-S8-Phe-BztA-Gln-NH2]"
73,,,,,2.143,45,,73,"CC[C@H](C)[C@@H]1NC(=O)[C@H](CC(=O)O)NC(=O)[C@]2(CC=CCCCC3(CCCC=CCCCCCC[C@@](C)(C(=O)N[C@@H](Cc4ccccc4)C(=O)N[C@@H](Cc4csc5ccccc45)C(=O)N[C@@H](CCC(N)=O)C(N)=O)NC(=O)[C@H](CCC(N)=O)NC(=O)[C@H](Cc4ccccc4)NC(=O)[C@H](C)NC(=O)[C@H](C)NC(=O)[C@H](CCC(=O)O)NC(=O)[C@H](CC(=O)O)NC3=O)NC1=O)CCCN2S(C)(=O)=O (stereo partly drawn) [I-710, MeSO2-PL3-Asp-Ile-B5-Asp-Glu-Ala-Ala-Phe-Gln-S8-Phe-BztA-Gln-NH2]"
